Data set [1] can be described thus: In vitro release kinetics (dialysis method). The class given is physicochemical. Particulars: PBS media, pH 7.4. The method, then: Solutions (1 mL) of free R848 in DMSO, R848/HA-Toco in water, R848-Toco in DMSO, and R848-Toco/HA-Toco in water, with a concentration of 1 mg/mL on R848 basis were dialyzed using SnakeSkin® dialysis tubing (MWCO […]) against 30 mL of phosphate buffered saline release medium (PBS, 10 mM sodium phosphate, 137 mM NaCl, pH 7.4) with 0.5% (w/v) polysorbate 80 at 37° C. At predetermined time points, 1 mL aliquots of release medium were sampled and replaced with an equal volume of fresh medium. The samples were kept frozen (−20° C.) until HPLC analysis.
Results: The in vitro release profiles of R848 and R848-Toco from the HA-Toco were studied using a dialysis method. […] The release of parent R848 formulated with HA-Toco was tested in PBS media, with free R848 dissolved in DMSO as a control. Similar release kinetics were observed whether R848 was formulated with HA-Toco or without ([…]), and in both conditions nearly 100% of the agonist was released over 24 h (FIG. 4A).

Data set [2] in a line: Depot effect: ear inflammation test in healthy rabbits. Particulars: s.c. into rabbit ear. It is filed as in vivo, New Zealand White rabbits. The method, then: It was observed that a local injection of the R848-Toco/HA-Toco nano-emulsion forms a depot at the site of injection and releases the loaded agonist in a sustained fashion, producing prolonged and localized immune stimulation while minimizing systemic off-target effects. To test the localization effect, an ear inflammation test was conducted in healthy rabbits. R848-Toco/HA-Toco and unformulated R848 were injected subcutaneously into opposing rabbit ears of subjects, and local inflammation and systemic TNF-α responses were observed.
New Zealand White rabbits (3-4 kg) were anaesthetized using 5% isoflurane and injected subcutaneously with 2.5 mg of R848 in 250 μl of vehicle into the ipsilateral ear. R848-Toco/HA-Toco was formulated as described above, and the R848 parent compound was formulated in 0.5% polysorbate 80 (w/v) in water. For histopathology, punch biopsies were taken 24 hours post injection, fixed in formalin, and analyzed by a board-certified veterinary pathologist (Kansas State Veterinary Hospital, […], KS, USA). In separate animals, blood samples were taken pre-injection and at 0.5, 1, 2, 5, and 24 h post-injection time points from the contra-lateral ear (marginal vein, 22 ga). Whole blood was centrifuged at 1500×g for 5 min and the serum were collected for cytokine evaluation. All samples and controls were prepared, and serum cytokine levels were measured.

For a further data set, the system named is canine PBMCs. Put plainly: In vitro cytokine secretion assay in canine PBMCs (Example 3). The class given is cell-based. Particulars: 15 hours, ELISA. An excerpt: As a TLR7/8 agonist, R848 binds to endosomal TLR7 and 8 receptors located on antigen presenting cells (APCs). The activation of APCs produces pro-inflammatory cytokines including TNF-α, type I IFN and IL-12. These cytokines, together with stimulated APCs that take up tumor antigens, enhance the activation of anti-tumor Th-1 immune responses that involve both CD4^+ T helper cells and CD8^+ cytotoxic T cells.^16 To evaluate the Th-1 associated cytokine production in vitro, isolated canine PBMCs were treated with R848, formulated or unformulated R848-Toco, and the secretion of TNF-α and IL-12 were measured by ELISA as markers of generalized inflammatory response. Canines were chosen as a model over mice because of the greater genetic similarity to humans and more similar immune systems.^46 Peripheral blood from healthy canine donors of 7-10 years age (similar to the age of typical canines with cancer^14) was obtained with appropriate informed consent of the owner. Blood (8 mL per tube) was drawn via sterile venipuncture into a BD Vacutainer cell preparation tube containing sodium heparin (BD Biosciences). PBMCs were isolated within one hour following procurement by density gradient centrifugation according to the manufacturer protocol and resuspended to 3×10^6 cells/mL in sterile RPMI 1640 medium with L-glutamine (Gibco) supplemented with 100 IU/mL penicillin, 100 μg/mL streptomycin (Corning) and 10% (v/v) heat-inactivated Fetalgro (RMBIO). Corning 3917, 96-well tissue culture treated plates were seeded with the PBMC suspension (180 μL/well), 20 μL of the serially diluted R848 samples were added in triplicate and HA-Toco vehicle in duplicate to yield the desired concentrations in a 1% (v/v) DMSO cell suspension. […] Sample cytokine concentrations were determined by interpolation of a four-parameter logistic curve of the recombinant standards using GraphPad Prism 6. […] Cytokine secretion levels were measured by ELISA (Duoset, R&D Systems, Minneapolis, MN, USA) according to the manufacturer protocol.

Data set [3] concerns canine peripheral blood mononuclear cells (cPBMCs). In words: Cytokine production in canine PBMCs by ELISA (Example 2). The class given is cell-based. The settings on record: ± SD, 20 μM, 29 hours, ELISA, triplicate. The method, then: The imidazoquinolines were further screened for cytokine production in canine peripheral blood mononuclear cells (cPBMCs). […] TNFα and IL-12 were chosen as they are typically seen in a Th-1 cytokine response.
Peripheral blood from a healthy canine donor was obtained with appropriate informed consent of the owner and under approved institutional guidelines. Blood (8 mL per tube) was drawn via sterile venipuncture into a BD Vacutainer cell preparation tube containing sodium heparin (BD Biosciences). PBMCs were isolated within one hour following procurement by density gradient centrifugation according to the manufacturer protocol and resuspended to 2.22×10^6 cells/mL in sterile RPMI 1640 medium with L-glutamine (Gibco) supplemented with 100 U/mL penicillin, 100 μg/mL streptomycin (Corning) and 10% (v/v) heat-inactivated Fetalgro (RMBIO). Corning 3917, 96-well tissue culture treated plates were seeded with the PBMC suspension (180 μL/well), 20 μL of the serially diluted TLR agonists were added in triplicate to yield the desired concentrations in a 1% (v/v) DMSO cell suspension. Cells were incubated at 37° C. in 5% CO2 for 9 hours (FIGS. 3A-3D) or 29 hours (Table 2) after which supernatants were removed and frozen at −80° C. Cytokine secretion levels were measured by ELISA (Duoset, R&D Systems) according to the manufacturer protocol. Samples and standards (n=3) were thawed and plated onto a Maxisorp flat-bottom, 384-well plate (Thermo Scientific) using a BioTek Precision XS pipetting system. Cytokine concentrations were determined by a hyperbolic or four-parameter logistic non-linear regression of the recombinant standards and subsequent interpolation using Graphpad Prism 7.0.

The structures appear in SMILES notation. “Also recorded” adds a separate entry of the source.

Turning to `CCOCc1nc2c(N)nc3ccccc3c2n1CC(C)(C)O` [Compound 2, resiquimod, reference compound], the “agonist released over 24 h” value in data set [1] is on record as ~100%. Besides, the “local response at the injection site” value in data set [2] (2.5 mg of R848 in 250 μl) is given as “minimum change; also recorded: no local reaction”. For the same molecule, in data set [2] (0.5-24 h post-injection, n=4), the “plasma TNF-α levels” value is reported as “significant elevation”. Further, in the data set with canine PBMCs, the IL-12 levels result is “highest” and the “secretion of TNF-α” value was “strong secretion”. In data set [3], the “Cytokine IFNg” value was 26 ± 7 pg/mL, the “Cytokine IL-2” value was found to be 120 ± 12 pg/mL, the “Cytokine IL-6” value turned out to be 380 ± 80 pg/mL and the “Cytokine IL-10” value was found to be 21 ± 2 pg/mL. Moreover, in data set [3], the “Cytokine IL-12” value was determined as 2800 ± 520 pg/mL and the “Cytokine TNFa” value stood at 190 ± 30 pg/mL.

Source of the values: patent publication US12295970B2, “Imidazoquinoline compounds and prodrugs thereof” (UNIVERSITY OF KANSAS, priority 2019, dated 2025).
